Assay results: patent publication US20030194748A1, “Method for labeling with tritium” (priority 2000, published 2003)

Target: T1, TXA2 receptor (Homo sapiens, UniProt P21731)
T1 construct: human platelet membrane fraction was prepared; from tissue; host or cells: human platelets (membrane fraction from the blood of normal adult donors)
T1 sequence (P21731 1-343): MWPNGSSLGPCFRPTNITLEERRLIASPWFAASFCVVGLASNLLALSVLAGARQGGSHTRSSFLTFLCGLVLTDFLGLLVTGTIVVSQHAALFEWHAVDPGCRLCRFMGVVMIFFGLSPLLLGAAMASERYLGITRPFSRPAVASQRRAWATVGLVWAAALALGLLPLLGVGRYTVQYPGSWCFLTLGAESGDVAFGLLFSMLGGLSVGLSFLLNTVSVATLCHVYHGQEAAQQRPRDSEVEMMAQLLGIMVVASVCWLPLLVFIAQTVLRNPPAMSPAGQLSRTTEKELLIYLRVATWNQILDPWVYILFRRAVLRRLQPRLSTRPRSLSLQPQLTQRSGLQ
Assay: TXA2 receptor binding assay
Conditions: human platelet membrane fraction; displacement of 2 nM [3H](+)-S-145 sodium salt; 90 min at room temperature; read-out: inhibition activity IC50
Procedure: Blood which was obtained using a plastic syringe contained 3.8% sodium citrate from the vein of normal human (adult male and female) was put into a plastic tube, and after lightly mixing with tumbling, centrifuged at 1800 rpm, for 10 min. at a room temperature to obtain platelet rich plasma (PRP) in supernatant. The PRP was further centrifuged at 2,300 rpm, for 22 min. at a room temperature to obtain platelets. The obtained platelets was homogenized using homogenizer (Ultra-Turrax), and then, centrifuged at 20,000 rpm, for 10 min. at 4° C. to obtain a fraction of platelet membrane. The membrane fraction was subjected to a quantitative assay for a protein to be adjusted to 2 mg/ml, and kept at −80° C. in a freezer until a binding assay is conducted. […]
To 0.2 ml of a binding reaction mixture (50 mM Tris/HCl, pH 7.4, 10 mM MgCl2), human platelet membrane fraction (0.05 mg) and 26.4 Ci/mmol of 2 nM [^3H](+)-(5Z)-7-[3-endo-[(phenylsulfonyl)amino]bicyclo[2.2.1]hepto-2-exo-yl] heptenic acid sodium salt (Japanese Patent Publication No. H5-79060, referred hereinafter to (+)-S-145 sodium salt) were added, and reacted for 90 min at room temperature. After reaction, the reaction was filtered by using grass fiber filter, washed several times with cold saline, and then, radioactivity remaining on the filter was assayed. […]

Row | IC50 | SMILES
1 | 0.15 µM | O=C(O)CCC/C=C\C[C@H]1[C@@H]2CC[C@@H](C2)[C@@H]1NC(=O)c1csc2ccc(O)cc12 [Compound 1]
2 | 3.8 µM | COC(=O)CCC/C=C\C[C@H]1[C@@H]2CC[C@@H](C2)[C@@H]1NC(=O)c1cccc2ccsc12 [Compound 2]
